According to ChEMBL document CHEMBL1133206, “Antifungal rapamycin analogues with reduced immunosuppressive activity” (Bioorg Med Chem Lett, 2000):
Values after ≈ are worked out from the molar mass of the structure shown.

How the values were obtained:
Homo sapiens = species on record: Homo sapiens; test: Inhibitory activity against human concanavalin-A proliferation assay; assay type: functional
Candida albicans [1] = test: In vitro antifungal activity against Candida albicans (CA 442); Weak; assay type: functional, organism-based
Aspergillus niger = test: In vitro antifungal activity at a minimum inhibitory concentration (~100 ug/mL) against Aspergillus niger; Not affected; assay type: functional
Nakaseomyces glabratus = test: In vitro antifungal activity against Torulopsis glabrata (TG 15545); assay type: functional
Candida albicans [2] = test: In vitro antifungal activity against […] (CA 34140); Not affected.; assay type: functional
Candida albicans [3] = test: In vitro antifungal activity against Candida albicans (CA 62376); Weak; assay type: functional, organism-based
Candida albicans [4] = test: In vitro for antifungal activity against Candida albicans (CA 579a); assay type: functional
Candida tropicalis = test: In vitro antifungal activity against Candida tropicalis (CT 750); assay type: functional
Candida albicans [5] = test: In vitro antifungal activity against Candida albicans (CA 38247); Weak; assay type: functional, organism-based
Candida albicans [6] = test: In vitro antifungal activity against Candida albicans (CA 10231); assay type: functional
Pichia kudriavzevii = test: In vitro antifungal activity against Candida krusei (CK 28838); assay type: functional
[7] = Aspergillus niger, read-out: MIC

SMILES	IC50 (Homo sapiens)	MIC (Candida albicans [1])	MIC (Aspergillus niger; [7])	MIC (Nakaseomyces glabratus)	MIC (Candida albicans [2])	MIC (Candida albicans [3])	MIC (Candida albicans [4])	MIC (Candida tropicalis)	MIC (Candida albicans [5])	MIC (Candida albicans [6])	MIC (Pichia kudriavzevii)	MIC (Aspergillus niger)
CO[C@@H]1C[C@H](C[C@@H](C)[C@@H]2CC(=O)[C@H](C)/C=C(\C)[C@@H](O)[C@@H](OC)C(=O)[C@H](C)C[C@H](C)/C=C/C=C/C=C(\C)[C@H](N(O)C(=O)N(C)C)C[C@@H]3CC[C@@H](C)[C@@](O)(O3)C(=O)C(=O)N3CCCC[C@H]3C(=O)O2)CC[C@H]1O	2030 nM	Weak	~100 µg/mL (≈ 101 µM)	3.12 µg/mL (≈ 3.16 µM)	~100 µg/mL (≈ 101 µM)	Weak	100 µg/mL (≈ 101 µM)	50 µg/mL (≈ 50.7 µM)	Weak	100 µg/mL (≈ 101 µM)	–	–
CO[C@@H]1C[C@H](C[C@@H](C)[C@@H]2CC(=O)[C@H](C)/C=C(\C)[C@@H](O)[C@@H](OC)C(=O)[C@H](C)C[C@H](C)/C=C/C=C/C=C(\C)[C@@H](N(O)C(=O)OCC(C)C)C[C@@H]3CC[C@@H](C)[C@@](O)(O3)C(=O)C(=O)N3CCCC[C@H]3C(=O)O2)CC[C@H]1O	760 nM	Weak	~100 µg/mL (≈ 98.5 µM)	0.78 µg/mL (≈ 0.768 µM)	~100 µg/mL (≈ 98.5 µM)	Weak	12.5 µg/mL (≈ 12.3 µM)	3.12 µg/mL (≈ 3.07 µM)	Weak	3.12 µg/mL (≈ 3.07 µM)	0.78 µg/mL (≈ 0.768 µM)	–
CO[C@@H]1C[C@H](C[C@@H](C)[C@@H]2CC(=O)[C@H](C)/C=C(\C)[C@@H](O)[C@@H](OC)C(=O)[C@H](C)C[C@H](C)/C=C/C=C/C=C(\C)[C@@H](N(O)C(=O)N(C)C)C[C@@H]3CC[C@@H](C)[C@@](O)(O3)C(=O)C(=O)N3CCCC[C@H]3C(=O)O2)CC[C@H]1O	2030 nM	Weak	~100 µg/mL (≈ 101 µM)	3.12 µg/mL (≈ 3.16 µM)	~100 µg/mL (≈ 101 µM)	Weak	100 µg/mL (≈ 101 µM)	50 µg/mL (≈ 50.7 µM)	Weak	100 µg/mL (≈ 101 µM)	–	–
CO[C@@H]1C[C@H](C[C@@H](C)[C@@H]2CC(=O)[C@H](C)/C=C(\C)[C@@H](O)[C@@H](OC)C(=O)[C@H](C)C[C@H](C)/C=C/C=C/C=C(\C)[C@H](N(O)C(=O)OC(C)C)C[C@@H]3CC[C@@H](C)[C@@](O)(O3)C(=O)C(=O)N3CCCC[C@H]3C(=O)O2)CC[C@H]1O	220 nM	Weak	~100 µg/mL (≈ 99.9 µM)	0.78 µg/mL (≈ 0.779 µM)	~100 µg/mL (≈ 99.9 µM)	Weak	12.5 µg/mL (≈ 12.5 µM)	25 µg/mL (≈ 25 µM)	Weak	6.25 µg/mL (≈ 6.24 µM)	0.78 µg/mL (≈ 0.779 µM)	–
CO[C@@H]1C[C@H](C[C@@H](C)[C@@H]2CC(=O)[C@H](C)/C=C(\C)[C@@H](O)[C@@H](OC)C(=O)[C@H](C)C[C@H](C)/C=C/C=C/C=C(\C)[C@H](N(O)C(=O)Oc3ccccc3)C[C@@H]3CC[C@@H](C)[C@@](O)(O3)C(=O)C(=O)N3CCCC[C@H]3C(=O)O2)CC[C@H]1O	170 nM	Weak	~100 µg/mL (≈ 96.6 µM)	0.78 µg/mL (≈ 0.753 µM)	~100 µg/mL (≈ 96.6 µM)	Weak	3.12 µg/mL (≈ 3.01 µM)	0.78 µg/mL (≈ 0.753 µM)	Weak	1.56 µg/mL (≈ 1.51 µM)	0.78 µg/mL (≈ 0.753 µM)	–
CO[C@H]1C[C@@H]2CC[C@@H](C)[C@@](O)(O2)C(=O)C(=O)N2CCCC[C@H]2C(=O)O[C@H]([C@H](C)C[C@@H]2CC[C@@H](OC(=O)N(C)C)[C@H](OC)C2)CC(=O)[C@H](C)/C=C(\C)[C@@H](O)[C@@H](OC)C(=O)[C@H](C)C[C@H](C)CCCC/C=C/1C	485 nM	–	–	–	–	–	50 µg/mL (≈ 50.5 µM)	> 100 µg/mL	–	50 µg/mL (≈ 50.5 µM)	6.25 µg/mL (≈ 6.32 µM)	–
CCCCOC(=O)N(O)[C@H]1C[C@@H]2CC[C@@H](C)[C@@](O)(O2)C(=O)C(=O)N2CCCC[C@H]2C(=O)O[C@H]([C@H](C)C[C@@H]2CC[C@@H](O)[C@H](OC)C2)CC(=O)[C@H](C)/C=C(\C)[C@@H](O)[C@@H](OC)C(=O)[C@H](C)C[C@H](C)/C=C/C=C/C=C/1C	523 nM	Weak	~100 µg/mL (≈ 98.5 µM)	1.56 µg/mL (≈ 1.54 µM)	~100 µg/mL (≈ 98.5 µM)	Weak	12.5 µg/mL (≈ 12.3 µM)	12.5 µg/mL (≈ 12.3 µM)	Weak	12.5 µg/mL (≈ 12.3 µM)	1.56 µg/mL (≈ 1.54 µM)	–
CO[C@@H]1C[C@H](C[C@@H](C)[C@@H]2CC(=O)[C@H](C)/C=C(\C)[C@@H](O)[C@@H](OC)C(=O)[C@H](C)C[C@H](C)/C=C/C=C/C=C(\C)[C@H](N(O)C(N)=O)C[C@@H]3CC[C@@H](C)[C@@](O)(O3)C(=O)C(=O)N3CCCC[C@H]3C(=O)O2)CC[C@H]1O	379 nM	Weak	~100 µg/mL (≈ 104 µM)	1.56 µg/mL (≈ 1.63 µM)	~100 µg/mL (≈ 104 µM)	Weak	25 µg/mL (≈ 26.1 µM)	3.12 µg/mL (≈ 3.26 µM)	Weak	12.5 µg/mL (≈ 13 µM)	3.12 µg/mL (≈ 3.26 µM)	~100 µg/mL (≈ 104 µM)
CO[C@@H]1C[C@H](C[C@@H](C)[C@@H]2CC(=O)[C@H](C)/C=C(\C)[C@@H](O)[C@@H](OC)C(=O)[C@H](C)C[C@H](C)/C=C/C=C/C=C(\C)[C@H](c3ccc(C)s3)C[C@@H]3CC[C@@H](C)[C@@](O)(O3)C(=O)C(=O)N3CCCC[C@H]3C(=O)O2)CC[C@H]1O	221 nM	Weak	~100 µg/mL (≈ 102 µM)	0.78 µg/mL (≈ 0.796 µM)	~100 µg/mL (≈ 102 µM)	Weak	12.5 µg/mL (≈ 12.8 µM)	1.56 µg/mL (≈ 1.59 µM)	Weak	3.12 µg/mL (≈ 3.18 µM)	1.56 µg/mL (≈ 1.59 µM)	–
CO[C@H]1C[C@@H]2CC[C@@H](C)[C@@](O)(O2)C(=O)C(=O)N2CCCC[C@H]2C(=O)O[C@H]([C@H](C)C[C@@H]2CC[C@@H](OC(=O)N(C)O)[C@H](OC)C2)CC(=O)[C@H](C)/C=C(\C)[C@@H](O)[C@@H](OC)C(=O)[C@H](C)C[C@H](C)CCCC/C=C/1C	434 nM	–	–	–	–	–	3.12 µg/mL (≈ 3.15 µM)	3.12 µg/mL (≈ 3.15 µM)	–	3.12 µg/mL (≈ 3.15 µM)	1.56 µg/mL (≈ 1.57 µM)	–
CO[C@@H]1C[C@H](C[C@@H](C)[C@@H]2CC(=O)[C@H](C)/C=C(\C)[C@@H](O)[C@@H](OC)C(=O)[C@H](C)C[C@H](C)/C=C/C=C/C=C(\C)[C@H](N(OC)C(=O)N(C)C)C[C@@H]3CC[C@@H](C)[C@@](O)(O3)C(=O)C(=O)N3CCCC[C@H]3C(=O)O2)CC[C@H]1O	6.5 nM	Weak	~100 µg/mL (≈ 100 µM)	1.56 µg/mL (≈ 1.56 µM)	~100 µg/mL (≈ 100 µM)	Weak	50 µg/mL (≈ 50 µM)	50 µg/mL (≈ 50 µM)	Weak	50 µg/mL (≈ 50 µM)	1.56 µg/mL (≈ 1.56 µM)	–
CO[C@@H]1C[C@H](C[C@@H](C)[C@@H]2CC(=O)[C@H](C)/C=C(\C)[C@@H](O)[C@@H](OC)C(=O)[C@H](C)C[C@H](C)/C=C/C=C/C=C(\C)[C@H](N(O)C(=O)OCC(C)C)C[C@@H]3CC[C@@H](C)[C@@](O)(O3)C(=O)C(=O)N3CCCC[C@H]3C(=O)O2)CC[C@H]1O	196 nM	Weak	~100 µg/mL (≈ 98.5 µM)	0.78 µg/mL (≈ 0.768 µM)	~100 µg/mL (≈ 98.5 µM)	Weak	3.12 µg/mL (≈ 3.07 µM)	1.56 µg/mL (≈ 1.54 µM)	Weak	1.56 µg/mL (≈ 1.54 µM)	0.78 µg/mL (≈ 0.768 µM)	–
CO[C@@H]1C[C@H](C[C@@H](C)[C@@H]2CC(=O)[C@H](C)/C=C(\C)[C@@H](O)[C@@H](OC)C(=O)[C@H](C)C[C@H](C)/C=C/C=C/C=C(\C)[C@@H](N(O)C(N)=O)C[C@@H]3CC[C@@H](C)[C@@](O)(O3)C(=O)C(=O)N3CCCC[C@H]3C(=O)O2)CC[C@H]1O	758 nM	Weak	~100 µg/mL (≈ 104 µM)	1.56 µg/mL (≈ 1.63 µM)	~100 µg/mL (≈ 104 µM)	Weak	100 µg/mL (≈ 104 µM)	12.5 µg/mL (≈ 13 µM)	Weak	100 µg/mL (≈ 104 µM)	3.12 µg/mL (≈ 3.26 µM)	–
